Like-named read-outs stand apart in the source and are kept apart here. Starred links: 1 amine or outer side, 2 acyl side, 3 side chain; linkers in the order of their positions; H or OH if unused. Positions of bridges follow the written chain, without caps; N, C: chain ends. Non-standard residues stand in square brackets, D forms with d. Residues, ends and D or L forms follow the SMILES beside them. Groups on a side chain read outwards from the residue. *: point of attachment. Qpipzaa = (S)-2-amino-5-(4-(carboxymethyl)piperazin-1-yl)-5-oxopentanoic acid, O=C(CC[C@H](N[*:1])C(=O)[*:2])N1CCN(CC(=O)[*:3])CC1; F4aao = (S)-2-amino-3-(4-(carboxymethoxy)phenyl)propanoic acid, O=C([C@H](Cc1ccc(OCC(=O)[*:3])cc1)N[*:1])[*:2]; Trp(1-CH2CO) = O=C([C@H](Cc1cn(CC(=O)[*:3])c2ccccc12)N[*:1])[*:2]; Trp(1-CH2COOH) = N[C@@H](Cc1cn(CC(=O)O)c2ccccc12)C(=O)O; Meglumine = CN(C[C@H](O)[C@@H](O)[C@H](O)[C@H](O)CO)*; X3 = CN([C@@H](Cc1cccc(C(=O)[*:3])c1)C(=O)[*:2])[*:1]; X1 = O=C([C@H](Cc1cccc(C(=O)[*:3])c1)N[*:1])[*:2]; Nle(6-morpholino) = N[C@@H](CCCCN1CCOCC1)C(=O)O; Phe(3-COOH) = N[C@@H](Cc1cccc(C(=O)O)c1)C(=O)O; NH(CH2CH2O)8Me = COCCOCCOCCOCCOCCOCCOCCOCCN*; NMePhe(3-Cl) = CN[C@@H](Cc1cccc(Cl)c1)C(=O)O; 3Pal(6-NH2) = Nc1ccc(C[C@H](N)C(=O)O)cn1; Lys(N3) = [N-]=[N+]=NCCCC[C@H](N)C(=O)O; NMeY = CN[C@@H](Cc1ccc(O)cc1)C(=O)O; NH(CH2CH2O)4Me = COCCOCCOCCOCCN*; 3Pal = N[C@@H](Cc1cccnc1)C(=O)O; 4Pal = N[C@@H](Cc1ccncc1)C(=O)O; PEG4 = NCCOCCOCCOCCOCCC(=O)O; Carboxymethyl = O=C(O)C*; CO = O=C([*:1])[*:2]
Molecular target: T1, human transferrin receptor (hTfR) (Homo sapiens, UniProt P02786)
T1 construct: made in house
Assay: Evaluation of molecular interaction between transferrin receptor (hTfR) and peptide using surface plasmon resonance (SPR)
Type: binding
Method in brief: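 KD values are derived by least-squares fitting of single-cycle kinetic sensorgrams. Peptide series (5–100 nM) flows over recombinant hTfR dimer immobilized on a Ni-NTA chip by EDC/NHS coupling, in pH 8.0 HEPES buffer containing 0.1% BSA and 1.0% DMSO.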

[1] = KD class for binding to hTfR by SPR, peptide with the linker shown in the same line, 'low signal indicates no activity', read-out: SPR
[2] = surface plasmon resonance, binding to hTfR, KD class symbol, read-out: SPR (KD value)

T1 sequence (P02786 89-760 limits assumed): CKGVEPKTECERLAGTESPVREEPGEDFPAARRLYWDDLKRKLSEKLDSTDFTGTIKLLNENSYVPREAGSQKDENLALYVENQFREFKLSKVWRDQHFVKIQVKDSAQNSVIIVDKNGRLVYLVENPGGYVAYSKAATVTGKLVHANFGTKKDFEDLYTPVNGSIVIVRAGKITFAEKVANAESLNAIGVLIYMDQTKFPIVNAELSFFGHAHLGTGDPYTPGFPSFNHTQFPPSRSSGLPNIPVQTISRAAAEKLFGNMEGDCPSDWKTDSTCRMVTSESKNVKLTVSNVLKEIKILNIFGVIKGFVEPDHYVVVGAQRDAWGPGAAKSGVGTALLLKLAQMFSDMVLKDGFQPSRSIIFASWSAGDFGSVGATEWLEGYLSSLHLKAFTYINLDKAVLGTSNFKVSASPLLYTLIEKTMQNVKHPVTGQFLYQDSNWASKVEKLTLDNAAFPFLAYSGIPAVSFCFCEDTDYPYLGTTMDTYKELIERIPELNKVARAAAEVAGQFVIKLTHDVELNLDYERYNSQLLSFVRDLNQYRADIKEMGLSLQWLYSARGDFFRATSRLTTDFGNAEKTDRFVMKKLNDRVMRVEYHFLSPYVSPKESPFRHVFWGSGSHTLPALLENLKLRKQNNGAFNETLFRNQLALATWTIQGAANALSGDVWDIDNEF

Row | Compound | Kd [1] [nM] | Kd [2] [nM] | further results
1 | CC[C@H](C)[C@@H]1NC(=O)[C@H](Cc2ccc(OCC(=O)O)cc2)NC(=O)[C@H](Cc2ccc(O)cc2)NC(=O)[C@H](CC(N)=O)NC(=O)[C@H](Cc2cn(CC(=O)O)c3ccccc23)NC(=O)[C@H](C(C)C)NC(=O)[C@H](Cc2cccc(Cl)c2)N(C)C(=O)[C@H](C(C)C)NC(=O)[C@H](C)NC(=O)CSC[C@@H](C(=O)NCCOCCOCCOCCOCCC(N)=O)NC(=O)[C@H](Cc2ccc(O)cc2)N(C)C(=O)[C@H](Cc2cccc(C(=O)O)c2)NC(=O)[C@H](CCCCN2CCOCC2)NC(=O)[C@H](CCCCN2CCOCC2)NC(=O)[C@H]([C@@H](C)CC)NC1=O [compound 240] ({CH2CO}-AV[NMePhe(3-Cl)]V[Trp(1-CH2COOH)]NYY(Carboxymethyl)II[Nle(6-morpholino)][Nle(6-morpholino)][Phe(3-COOH)][NMeY]C[PEG4]-NH2; thioether N-15) |  |  | Kd (peptide with linker, surface plasmon resonance, read-out: SPR (KD class for binding to hTfR)): 1 to 100 nM
2 | CC[C@H](C)[C@@H]1NC(=O)[C@H](Cc2ccc(O)cc2)NC(=O)[C@H](Cc2ccc(O)cc2)NC(=O)[C@H](CC(N)=O)NC(=O)[C@H](Cc2c[nH]c3ccccc23)N(C)C(=O)[C@H](C(C)C)NC(=O)[C@H](Cc2ccccc2)N(C)C(=O)[C@H](C(C)C)NC(=O)[C@H](C)NC(=O)CSC[C@@H](C(=O)NCC(=O)N[C@H](CO)C(=O)N[C@H](CO)C(=O)N[C@H](CO)C(=O)N[C@H](CO)C(=O)N[C@H](CO)C(=O)N[C@@H](CCCCN=[N+]=[N-])C(N)=O)NC(=O)[C@H](Cc2ccc(O)cc2)N(C)C(=O)[C@H](Cc2ccc(O)cc2)NC(=O)[C@H](CCCNC(=N)N)NC(=O)[C@H](CCCCN)NC(=O)[C@H]([C@@H](C)CC)NC1=O [894_3200] | < 1 |  | 
3 | CC[C@H](C)[C@@H]1NC(=O)[C@H](Cc2cccnc2)NC(=O)[C@H](Cc2ccc(O)cc2)NC(=O)[C@H](CC(N)=O)NC(=O)[C@H](Cc2cn(CC(=O)O)c3ccccc23)NC(=O)[C@H](C(C)C)NC(=O)[C@H](Cc2cccc(Cl)c2)N(C)C(=O)[C@H](C(C)C)NC(=O)[C@H](C)NC(=O)CSC[C@@H](C(=O)NCCOCCOCCOCCOCCC(N)=O)NC(=O)[C@H](Cc2ccc(O)cc2)N(C)C(=O)[C@H](Cc2ccccc2)NC(=O)[C@H](CCCNC(=N)N)NC(=O)[C@H](CCCNC(=N)N)NC(=O)[C@H]([C@@H](C)CC)NC1=O [894_0333] ({CH2CO}-AV[NMePhe(3-Cl)]V[Trp(1-CH2COOH)]NY[3Pal]IIRRF[NMeY]C[PEG4]-NH2; thioether N-15) | 1 to 100 |  | 
4 | CC[C@H](C)[C@@H]1NC(=O)[C@H](Cc2cccnc2)NC(=O)[C@H](Cc2ccc(O)cc2)NC(=O)[C@H](CC(N)=O)NC(=O)[C@H](Cc2c[nH]c3ccccc23)NC(=O)[C@H](C(C)C)NC(=O)[C@H](Cc2cccc(Cl)c2)N(C)C(=O)[C@H](C(C)C)NC(=O)[C@H](C)NC(=O)CSC[C@@H](C(=O)NCCOCCOCCOCCOCCC(N)=O)NC(=O)[C@H](Cc2ccc(O)cc2)N(C)C(=O)[C@H](Cc2cccc(C(=O)O)c2)NC(=O)[C@H](CCC(=O)NCCOCCOCCOCCOCCOCCOCCOCCOC)NC(=O)[C@H](CCCNC(=N)N)NC(=O)[C@H]([C@@H](C)CC)NC1=O [compound 93] ({CH2CO}-AV[NMePhe(3-Cl)]VWNY[3Pal]IIRE(NH(CH2CH2O)8Me)[Phe(3-COOH)][NMeY]C[PEG4]-NH2; thioether N-15) |  | 1 to 100 | 
5 | CC[C@H](C)[C@@H]1NC(=O)[C@H](Cc2ccc(OCC(=O)O)cc2)NC(=O)[C@H](Cc2ccc(O)cc2)NC(=O)[C@H](CC(N)=O)NC(=O)[C@H](Cc2c[nH]c3ccccc23)NC(=O)[C@H](C(C)C)NC(=O)[C@H](Cc2cccc(Cl)c2)N(C)C(=O)[C@H](C(C)C)NC(=O)[C@H](C)NC(=O)CSC[C@@H](C(=O)NCCOCCOCCOCCOCCC(N)=O)NC(=O)[C@H](Cc2cccc(C(=O)NCCOCCOCCOCCOC)c2)N(C)C(=O)[C@H](Cc2cccc(C(=O)NCCOCCOCCOCCOC)c2)NC(=O)[C@H](CCCNC(=N)N)NC(=O)[C@H](CCC(N)=O)NC(=O)[C@H]([C@@H](C)CC)NC1=O [compound 128] ({CH2CO}-AV[NMePhe(3-Cl)]VWNYY(Carboxymethyl)IIQR[X1](NH(CH2CH2O)4Me)[X3](NH(CH2CH2O)4Me)C[PEG4]-NH2; thioether N-15) |  | 1 to 100 | 
6 | CC[C@H](C)[C@@H]1NC(=O)[C@H](Cc2ccc(OCC(=O)O)cc2)NC(=O)[C@H](Cc2ccc(N)nc2)NC(=O)[C@H](CC(N)=O)NC(=O)[C@H](Cc2c[nH]c3ccccc23)NC(=O)[C@H](C(C)C)NC(=O)[C@H](Cc2cccc(Cl)c2)N(C)C(=O)[C@H](C(C)C)NC(=O)[C@H](C)NC(=O)CSC[C@@H](C(=O)NCCOCCOCCOCCOCCC(N)=O)NC(=O)[C@H](Cc2ccc(O)cc2)N(C)C(=O)[C@H](Cc2ccncc2)NC(=O)[C@H](CCCNC(=N)N)NC(=O)[C@H](CCC(=O)NCCOCCOCCOCCOCCOCCOCCOCCOC)NC(=O)[C@H]([C@@H](C)CC)NC1=O [compound 141] |  | 100 to 1000 | 
7 | CC[C@H](C)[C@@H]1NC(=O)[C@H](Cc2ccc(O)cc2)NC(=O)[C@H](Cc2ccc(O)cc2)NC(=O)[C@H](C)NC(=O)[C@H](Cc2c[nH]c3ccccc23)NC(=O)[C@H](C(C)C)NC(=O)[C@H](Cc2ccccc2)N(C)C(=O)[C@H](C(C)C)NC(=O)[C@H](C)NC(=O)CSC[C@@H](C(=O)NCC(=O)N[C@@H](CCCCN=[N+]=[N-])C(N)=O)NC(=O)[C@H](Cc2ccc(O)cc2)N(C)C(=O)[C@H](Cc2ccc(O)cc2)NC(=O)[C@H](CCCNC(=N)N)NC(=O)[C@H](CCCNC(=N)N)NC(=O)[C@H]([C@@H](C)CC)NC1=O [894_3160] | 100 to 1000 |  | 
8 | CC[C@H](C)[C@@H]1NC(=O)[C@H](Cc2cccnc2)NC(=O)[C@H](Cc2ccc(O)cc2)NC(=O)[C@H](CC(N)=O)NC(=O)[C@H](Cc2cn(CC(=O)O)c3ccccc23)NC(=O)[C@H](C(C)C)NC(=O)[C@H](Cc2cccc(Cl)c2)N(C)C(=O)[C@H](C(C)C)NC(=O)[C@H](C)NC(=O)CSC[C@@H](C(=O)NCCOCCOCCOCCOCCC(N)=O)NC(=O)[C@H](Cc2ccc(O)cc2)N(C)C(=O)[C@H](Cc2ccncc2)NC(=O)[C@H](CCC(=O)NCCOCCOCCOCCOCCOCCOCCOCCOC)NC(=O)[C@H](CCCNC(=N)N)NC(=O)[C@H]([C@@H](C)CC)NC1=O [compound 83] ({CH2CO}-AV[NMePhe(3-Cl)]V[Trp(1-CH2COOH)]NY[3Pal]IIRE(NH(CH2CH2O)8Me)[4Pal][NMeY]C[PEG4]-NH2; thioether N-15) |  | 1 to 100 | 
9 | CC[C@H](C)[C@@H]1NC(=O)[C@H](Cc2ccc(OC)cc2)NC(=O)[C@H](Cc2ccc(O)cc2)NC(=O)[C@H](CC(N)=O)NC(=O)[C@H](Cc2c[nH]c3ncccc23)NC(=O)[C@H](C(C)C)NC(=O)[C@H](Cc2cccc(Cl)c2)N(C)C(=O)[C@H](C(C)C)NC(=O)[C@H](C)NC(=O)CSC[C@@H](C(=O)NCCOCCOCCOCCOCCC(N)=O)NC(=O)[C@H](Cc2ccc(O)cc2)N(C)C(=O)[C@H](Cc2ccncc2)NC(=O)[C@H](CCCNC(=N)N)NC(=O)[C@H](CCCNC(=N)N)NC(=O)[C@H]([C@@H](C)CC)NC1=O [compound 65] |  | 1 to 100 | 
10 | CC[C@H](C)[C@@H]1NC(=O)[C@H](Cc2cccnc2)NC(=O)[C@H](Cc2ccc(N)nc2)NC(=O)[C@H](CC(N)=O)NC(=O)[C@H](Cc2c[nH]c3ccccc23)NC(=O)[C@H](C(C)C)NC(=O)[C@H](Cc2cccc(Cl)c2)N(C)C(=O)[C@H](C(C)C)NC(=O)[C@H](C)NC(=O)CSC[C@@H](C(=O)NCCOCCOCCOCCOCCC(N)=O)NC(=O)[C@H](Cc2ccc(O)cc2)N(C)C(=O)[C@H](Cc2cccc(C(=O)O)c2)NC(=O)[C@H](CCCNC(=N)N)NC(=O)[C@H](CCCNC(=N)N)NC(=O)[C@H]([C@@H](C)CC)NC1=O [SEQ ID No. 198] ({CH2CO}-AV[NMePhe(3-Cl)]VWN[3Pal(6-NH2)][3Pal]IIRR[Phe(3-COOH)][NMeY]C[PEG4]-NH2; thioether N-15) | 1 to 100 |  | 
11 | CC[C@H](C)[C@@H]1NC(=O)[C@H](Cc2ccc(OCC(=O)O)cc2)NC(=O)[C@H](Cc2ccc(O)cc2)NC(=O)[C@H](CC(N)=O)NC(=O)[C@H](Cc2c[nH]c3ncccc23)NC(=O)[C@H](C(C)C)NC(=O)[C@H](Cc2cccc(Cl)c2)N(C)C(=O)[C@H](C(C)C)NC(=O)[C@H](C)NC(=O)CSC[C@@H](C(=O)NCCOCCOCCOCCOCCC(N)=O)NC(=O)[C@H](Cc2ccc(O)cc2)N(C)C(=O)[C@H](Cc2ccncc2)NC(=O)[C@H](CCCCN2CCOCC2)NC(=O)[C@H](CCC(=O)NCCOCCOCCOCCOCCOCCOCCOCCOC)NC(=O)[C@H]([C@@H](C)CC)NC1=O [compound 139] |  | 1 to 100 | 
12 | 894_0385 ({CH2CO}-AV[NMePhe(3-Cl)]V[Trp(1-CH2CO)]NY[F4aao]II[Qpipzaa][Qpipzaa]F[NMeY]C-NH2; thioether N-15; also: linker PEG4c, place not given here) |  |  | SPR (KD class for binding to hTfR by SPR, peptide with the linker shown in the same line, 'low signal indicates no activity'): Low signal
13 | CC[C@H](C)[C@@H]1NC(=O)[C@H](Cc2cccnc2)NC(=O)[C@H](Cc2ccc(O)cc2)NC(=O)[C@H](CC(N)=O)NC(=O)[C@H](Cc2c[nH]c3ccccc23)NC(=O)[C@H](C(C)C)NC(=O)[C@H](Cc2cccc(Cl)c2)N(C)C(=O)[C@H](C(C)C)NC(=O)[C@H](C)NC(=O)CSC[C@@H](C(=O)NCC(=O)N[C@H](CCCCNC(=O)N(C)C[C@H](O)[C@@H](O)[C@H](O)[C@H](O)CO)C(=O)N[C@H](CCCCNC(=O)N(C)C[C@H](O)[C@@H](O)[C@H](O)[C@H](O)CO)C(=O)N[C@H](CCCCNC(=O)N(C)C[C@H](O)[C@@H](O)[C@H](O)[C@H](O)CO)C(=O)N[C@H](CO)C(=O)N[C@H](CO)C(=O)N[C@@H](CCCCN=[N+]=[N-])C(N)=O)NC(=O)[C@H](Cc2ccc(O)cc2)N(C)C(=O)[C@H](Cc2ccncc2)NC(=O)[C@H](CCCNC(=N)N)NC(=O)[C@H](CCCNC(=N)N)NC(=O)[C@H]([C@@H](C)CC)NC1=O [compound 68] ({CH2CO}-AV[NMePhe(3-Cl)]VWNY[3Pal]IIRR[4Pal][NMeY]CG[dK]([CO-Meglumine])[dK]([CO-Meglumine])[dK]([CO-Meglumine])[dS][dS][Lys(N3)]-NH2; thioether N-15) |  | 1 to 100 | 
